# Source: ChEMBL document CHEMBL2062468, “Identification of first proadrenomedullin N-terminal 20 peptide (PAMP) modulator by means of virtual screening and NMR interaction experiments” (Eur J Med Chem, 2012)
# Activity calls are given as the source filed them. No cut-off for these calls is given here.
# Molecular target: T1, Pro-adrenomedullin (Homo sapiens) (UniProt P35318)
# T1 sequence (whole entry): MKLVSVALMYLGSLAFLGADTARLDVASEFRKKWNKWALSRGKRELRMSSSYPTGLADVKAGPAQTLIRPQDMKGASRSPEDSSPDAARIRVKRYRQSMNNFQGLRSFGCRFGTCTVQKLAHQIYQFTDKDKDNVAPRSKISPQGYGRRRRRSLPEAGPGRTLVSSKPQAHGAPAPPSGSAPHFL
# Assay: Binding affinity to human synthetic proadrenomedullin N-terminal 20 peptide assessed as reduction in absorbance at 1 uM after 1 hr by monoclonal antibody method
# Design: scale not given: the % may be the effect or the level left
row,SMILES,Activity [%]
1,CC1c2ccccc2Cn2cc3c(c21)C(=O)c1cccc(OP(=O)(O)OCc2ccccc2)c1C3=O (stereo unspecified),107
2,OC[C@H]1O[C@@H](n2cnc3c(SCc4ccccc4)ncnc32)[C@H](O)[C@@H]1O,109
3,CC(C)CCC[C@@H](C)[C@H]1CC[C@H]2[C@@H]3CCC4CC(N)CC[C@]4(C)[C@H]3CC[C@]12C (stereo partly specified),106
4,FC(F)(F)c1nc2ccc(SSc3ccc4nc(C(F)(F)F)[nH]c4c3)cc2[nH]1,109
5,O=S(=O)(O)c1ccc(-c2nnc(-c3ccccn3)nc2-c2ccc(S(=O)(=O)O)o2)o1,81.9
6,S=C1NCN2CCN(CC2)CNC(=S)C(=S)NCN2CCN(CC2)CNC1=S,88
7,O=C(O)CNC(=O)C1NC(C(F)(F)F)(C(F)(F)F)OC1(C(F)(F)F)C(F)(F)F (stereo unspecified),92.1
8,O=C1C2C3C=CC(C2C(=O)N1CN1CCSCC1)C1C2C(=O)N(CN4CCSCC4)C(=O)C2C31 (stereo unspecified),92.5
9,c1cc(NNc2cccc(-c3nnn[nH]3)c2)cc(-c2nnn[nH]2)c1,95.3
10,O=S(=O)(O)c1ccc2cc(/N=N/c3cc(S(=O)(=O)O)c4cccnc4c3O)ccc2c1,86.4
11,c1ccc([PH](CC[PH](c2ccccc2)(c2ccccc2)c2ccccc2)(c2ccccc2)c2ccccc2)cc1,84.6
12,C[C@]12CC[C@@H]3c4ccc(O)cc4CC[C@H]3[C@@H]1CC[C@@H]2OC(=O)CCc1ccccc1,98.4
13,C(CCc1nnc2c(n1)CCCC2)Cc1nnc2c(n1)CCCC2,96.5
14,O=[N+]([O-])c1ccc2c(c1)N=C1OC(c3c[nH]c4ccc(COc5ccccc5)cc34)C(O)=C1N2 (stereo unspecified),92.7
15,S=C(Nc1ccc2c(c1)Cc1ccccc1-2)Nc1ccc2c(c1)Cc1ccccc1-2,80.8
16,Cn1cnc([N+](=O)[O-])c1Sc1nc(N)nc2c1ncn2[C@H]1C[C@H](O)[C@@H](CO)O1,86.3

row,SMILES,Activity [%]
1,Nc1nc(SCc2ccccc2)c2ncn(Cc3ccccc3)c2n1,91.4
2,c1ccc2c(CN3CCN(Cc4c[nH]c5ccccc45)CC3)c[nH]c2c1,89.7
3,CN1C(=O)C2N=C(C3CC(=O)CC(c4nc5c(=O)n(C)c(=O)n(C)c5[nH]4)N3)NC2N(C)C1=O (stereo unspecified),85.1
4,O=c1[nH]c2ccccc2n1CCCN1CCC(n2c(=O)[nH]c3cc(Cl)ccc32)CC1,80.1
5,C[C@]12CC[C@@H]3c4ccc(O)cc4CC[C@H]3[C@@H]1CC[C@@H]2OC(=O)CCC1CCCC1,91.2
6,Nc1nc(-c2ccc3ccccc3c2)cc(-c2cc(-c3ccc4ccccc4c3)nc(N)n2)n1,104
7,Cc1ccc(-c2nc(-c3nccc4ccccc34)oc2-c2ccccc2)cc1,72.1
8,Cn1c(=O)c2c(ncn2CN2CCN(Cn3cnc4c3c(=O)n(C)c(=O)n4C)CC2)n(C)c1=O,76.4
9,CC1(C)CC(Nc2ccc(Nc3ccccc3)cc2)CC(C)(C)N1,96.2
10,O=C(O)c1c(-c2nccc3ccccc23)[nH]c(-c2ccccc2)c1S(=O)(=O)O,96.7
11,Clc1ccc2c(N3CCC(CCC4CCN(c5ncnc6cc(Cl)ccc56)CC4)CC3)ncnc2c1,88
12,Nc1ncnc2nc(-c3ccc(C[PH](c4ccccc4)(c4ccccc4)c4ccccc4)cc3)[nH]c12,76
13,Cc1ccc2ccccc2c1CSc1nc(N)nc2c1ncn2CC(C)C,85.5
14,O=C1C(Cl)=C(Sc2nnc3c4ccccc4c4ccccc4c3n2)C(=O)c2ccccc21,88.4
15,O=C1c2ccccc2C(=O)c2c(NC3CCCCC3)ccc(Nc3ccc(S(=O)(=O)O)cc3)c21,101
16,Nc1nc(-c2ccccc2)c(-c2ccccc2)c(-c2nc(N)nc(-c3ccccc3)c2-c2ccccc2)n1,109

# Tested on: Mus musculus
# Assay: Induction of angiogenesis in mouse athymic nude mouse implanted with matrigel containing compound at 1 uM measured after 11 days by direct in vivo angiogenesis assay
# Assay type: functional, organism-based
row,SMILES,Activity
1,CN1C(=O)C2N=C(C3CC(=O)CC(c4nc5c(=O)n(C)c(=O)n(C)c5[nH]4)N3)NC2N(C)C1=O (stereo unspecified),Active

# Molecular target: T1, Pro-adrenomedullin (Homo sapiens)
# Assay: Binding affinity to human proadrenomedullin N-terminal 20 peptide assessed as fragmentation of PAMP protein at 500 uM by MS analysis
row,SMILES,Activity
1,O=S(=O)(O)c1ccc2cc(/N=N/c3cc(S(=O)(=O)O)c4cccnc4c3O)ccc2c1,Active

# Molecular target: T1, Pro-adrenomedullin (Homo sapiens)
# Assay: Binding affinity to human proadrenomedullin N-terminal 20 peptide at 500 uM by NMR spectroscopy
row,SMILES,Activity
1,O=S(=O)(O)c1ccc2cc(/N=N/c3cc(S(=O)(=O)O)c4cccnc4c3O)ccc2c1,Active
2,CN1C(=O)C2N=C(C3CC(=O)CC(c4nc5c(=O)n(C)c(=O)n(C)c5[nH]4)N3)NC2N(C)C1=O (stereo unspecified),Active
